What was measured:
[1] = system: KATO-III cell line (FGFR2 amplification); assay: Cancer cell line cell viability assay (Cell Titer-Glo), 72 hr; format: cell-based; settings: Homo sapiens, KATO III
In short: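 Following overnight attachment, each line receives compound in triplicate across nine 4-fold dilutions starting at 3 μM, with DMSO backfill for equal solvent. Luminescence after Cell Titer-Glo 2.0 addition gives percent viability versus DMSO control, fitted by 4-parameter logistic for IC50.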

[2] = system: KG-1 cell line (FGFR 1-fusion); assay: as above; format: cell-based; settings: Homo sapiens, KG-1, KG-1 cell line (FGFR1-fusion)
In short: (§1)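 ATP-based luminescence (Cell Titer-Glo 2.0) measured viability after 72 h (KG-1, RT112/84) or 120 h (MDA-MB-453, HuH7) compound exposure. Dosing was nine 4-fold steps starting at 3 μM, in triplicate, on overnight-plated cells. IC50 came from a variable-slope 4-parameter fit of % DMSO control.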

[3] = system: RT112/84 cell line (FGFR3-fusion); assay: as above; format: cell-based; settings: Homo sapiens, RT112/84, RT112/84 cell line (FGFR3-fusion)
In short: as §1

FGFR2 = target: T1, FGFR2 (Homo sapiens, UniProt P21802); assay: Kinase binding assay (kinase-tagged T7 phage, affinity beads, qPCR), Kd; settings: read-out: FGFR2 (Kd nM)
T1 construct: made in house; host or cells: E. coli (BL21-derived), T7 phage
T1 sequence (P21802 22-821): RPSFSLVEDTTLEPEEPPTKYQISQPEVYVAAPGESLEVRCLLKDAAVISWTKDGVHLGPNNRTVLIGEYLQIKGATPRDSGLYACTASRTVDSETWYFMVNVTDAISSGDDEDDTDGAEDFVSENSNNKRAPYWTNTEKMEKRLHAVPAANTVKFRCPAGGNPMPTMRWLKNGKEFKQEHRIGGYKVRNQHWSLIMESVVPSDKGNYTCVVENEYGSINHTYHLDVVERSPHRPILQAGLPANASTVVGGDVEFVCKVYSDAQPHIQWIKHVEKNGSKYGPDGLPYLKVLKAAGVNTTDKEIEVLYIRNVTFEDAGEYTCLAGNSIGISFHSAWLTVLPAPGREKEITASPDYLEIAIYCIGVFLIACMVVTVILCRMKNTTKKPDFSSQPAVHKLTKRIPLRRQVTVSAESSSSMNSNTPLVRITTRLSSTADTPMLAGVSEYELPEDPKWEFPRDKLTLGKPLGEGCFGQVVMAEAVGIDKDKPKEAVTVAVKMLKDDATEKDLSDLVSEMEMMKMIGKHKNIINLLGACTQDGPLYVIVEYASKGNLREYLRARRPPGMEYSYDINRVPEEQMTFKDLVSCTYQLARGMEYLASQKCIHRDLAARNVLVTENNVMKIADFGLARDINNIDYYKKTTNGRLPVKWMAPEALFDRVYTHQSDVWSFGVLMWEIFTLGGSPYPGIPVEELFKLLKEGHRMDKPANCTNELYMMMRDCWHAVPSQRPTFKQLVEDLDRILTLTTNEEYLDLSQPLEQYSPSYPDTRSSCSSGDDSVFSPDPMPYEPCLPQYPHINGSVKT
In short: (§2)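 T7 phage displaying each kinase, grown in a BL21-derived E. coli host at 32° C until lysis, competed with test compound for biotinylated ligand immobilised on streptavidin beads. Bead-bound kinase was eluted and quantified by qPCR. Kd came from an 11-point 3-fold dilution series fitted to the Hill equation with slope fixed at −1.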

FGFR3 = target: T2, FGFR3 (Homo sapiens, UniProt P22607); assay: as above; settings: read-out: FGFR3 (Kd nM)
T2 construct: made in house; host or cells: E. coli (BL21-derived), T7 phage
T2 sequence (P22607 23-806): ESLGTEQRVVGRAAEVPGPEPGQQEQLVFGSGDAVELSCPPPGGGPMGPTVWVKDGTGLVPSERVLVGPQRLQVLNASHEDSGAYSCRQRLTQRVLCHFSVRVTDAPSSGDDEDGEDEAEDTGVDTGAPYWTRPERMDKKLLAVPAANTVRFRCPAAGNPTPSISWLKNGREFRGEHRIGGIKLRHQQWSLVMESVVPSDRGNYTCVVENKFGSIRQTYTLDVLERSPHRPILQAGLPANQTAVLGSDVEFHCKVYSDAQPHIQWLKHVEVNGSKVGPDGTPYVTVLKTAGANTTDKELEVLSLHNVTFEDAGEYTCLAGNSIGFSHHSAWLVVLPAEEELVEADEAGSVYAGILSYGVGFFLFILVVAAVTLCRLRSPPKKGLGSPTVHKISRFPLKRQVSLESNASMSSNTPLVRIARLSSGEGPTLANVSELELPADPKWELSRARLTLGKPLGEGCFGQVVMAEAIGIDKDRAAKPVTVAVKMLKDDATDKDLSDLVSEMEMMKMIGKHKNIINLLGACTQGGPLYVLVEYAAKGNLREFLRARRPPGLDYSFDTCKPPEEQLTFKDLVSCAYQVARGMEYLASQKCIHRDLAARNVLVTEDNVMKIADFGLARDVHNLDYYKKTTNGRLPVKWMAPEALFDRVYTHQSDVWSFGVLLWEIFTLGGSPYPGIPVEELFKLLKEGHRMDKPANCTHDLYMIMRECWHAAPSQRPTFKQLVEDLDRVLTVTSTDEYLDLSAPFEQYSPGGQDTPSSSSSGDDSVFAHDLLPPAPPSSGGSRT
In short: as §2

FGFR1 = target: T3, FGFR1 (Homo sapiens, UniProt P11362); assay: as above; settings: read-out: FGFR1 (Kd nM)
T3 construct: made in house; host or cells: E. coli (BL21-derived), T7 phage
T3 sequence (P11362 22-822): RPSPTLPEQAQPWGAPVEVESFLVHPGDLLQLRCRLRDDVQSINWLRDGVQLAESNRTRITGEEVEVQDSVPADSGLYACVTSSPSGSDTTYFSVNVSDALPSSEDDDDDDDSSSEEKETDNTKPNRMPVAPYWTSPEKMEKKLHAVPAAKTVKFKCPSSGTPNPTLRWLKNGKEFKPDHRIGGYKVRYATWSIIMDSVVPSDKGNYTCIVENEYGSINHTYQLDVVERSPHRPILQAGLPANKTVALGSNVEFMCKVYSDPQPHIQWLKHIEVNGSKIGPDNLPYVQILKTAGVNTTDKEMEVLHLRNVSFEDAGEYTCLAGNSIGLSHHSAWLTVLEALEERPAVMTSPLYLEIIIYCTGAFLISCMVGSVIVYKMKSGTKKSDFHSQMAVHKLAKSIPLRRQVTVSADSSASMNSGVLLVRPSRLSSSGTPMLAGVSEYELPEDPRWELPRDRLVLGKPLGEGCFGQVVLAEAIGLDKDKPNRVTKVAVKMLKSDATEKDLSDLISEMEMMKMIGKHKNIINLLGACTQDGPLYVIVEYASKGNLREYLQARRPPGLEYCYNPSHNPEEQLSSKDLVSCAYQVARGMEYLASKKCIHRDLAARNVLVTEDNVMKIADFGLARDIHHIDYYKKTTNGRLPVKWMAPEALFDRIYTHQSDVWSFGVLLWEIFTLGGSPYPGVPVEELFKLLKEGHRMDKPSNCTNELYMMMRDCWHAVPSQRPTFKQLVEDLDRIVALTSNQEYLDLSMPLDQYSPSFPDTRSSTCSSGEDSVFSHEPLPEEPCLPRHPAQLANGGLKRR
In short: as §2

FGFR4 = target: T4, FGFR4 (Homo sapiens, UniProt P22455); assay: as above; settings: read-out: FGFR4 (Kd nM)
T4 construct: made in house; host or cells: E. coli (BL21-derived), T7 phage
T4 sequence (P22455 22-802): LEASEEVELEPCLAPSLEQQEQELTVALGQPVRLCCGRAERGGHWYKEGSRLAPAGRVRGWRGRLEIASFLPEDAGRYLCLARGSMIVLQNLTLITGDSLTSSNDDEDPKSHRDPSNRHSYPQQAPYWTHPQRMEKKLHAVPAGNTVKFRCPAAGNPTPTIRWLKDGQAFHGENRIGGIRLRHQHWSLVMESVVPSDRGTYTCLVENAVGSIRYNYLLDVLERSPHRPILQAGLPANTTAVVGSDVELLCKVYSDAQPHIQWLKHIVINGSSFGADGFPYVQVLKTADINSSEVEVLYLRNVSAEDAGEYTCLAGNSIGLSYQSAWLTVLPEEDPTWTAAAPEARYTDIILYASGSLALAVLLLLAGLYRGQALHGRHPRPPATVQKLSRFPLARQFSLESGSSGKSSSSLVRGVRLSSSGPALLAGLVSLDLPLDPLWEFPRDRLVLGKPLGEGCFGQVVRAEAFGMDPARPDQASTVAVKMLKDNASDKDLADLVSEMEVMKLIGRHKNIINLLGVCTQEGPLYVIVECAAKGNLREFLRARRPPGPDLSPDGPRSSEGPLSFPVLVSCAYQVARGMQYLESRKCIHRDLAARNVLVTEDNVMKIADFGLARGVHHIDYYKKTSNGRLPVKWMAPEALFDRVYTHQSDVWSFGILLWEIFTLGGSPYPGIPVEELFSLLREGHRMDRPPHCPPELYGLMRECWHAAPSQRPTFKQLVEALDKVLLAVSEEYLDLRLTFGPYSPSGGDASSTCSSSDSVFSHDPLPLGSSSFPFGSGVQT
In short: as §2

FGFR3 (V555M) = target: T5, FGFR3 (V555M) (Homo sapiens, UniProt P22607, V555M); assay: as above; settings: V555M mutant; read-out: FGFR3 (V555M) (Kd nM)
T5 construct: made in house; host or cells: E. coli (BL21-derived), T7 phage
T5 sequence (P22607 23-806 V555M): as the sequence (P22607 23-806) above, with V533M counted along it
In short: as §2

| IC50 [1] [nM] | IC50 [2] [nM] | IC50 [3] [nM] | Kd (FGFR2) [nM] | Kd (FGFR3) [nM] | Kd (FGFR1) [nM] | Kd (FGFR4) [nM] | Kd (FGFR3 (V555M)) [nM] | Compound |
| --- | --- | --- | --- | --- | --- | --- | --- | --- |
| 50 to 200 | 200 to 1000 | 0.1 to 50 | 1 to 50 | 1 to 50 | 1 to 50 | 1 to 50 | 1 to 50 | CCN(CC)C1(C)CN(c2ccc(-c3n[nH]c4ccc(O[C@H](C)c5c(Cl)cnc(C)c5Cl)cc34)cn2)C1 [Example 72, 1-[5-[5-[(1R)-1-(3,5-dichloro-2-methyl-4-pyridyl)ethoxy]-1H-indazol-3-yl]-2-pyridyl]-N,N-diethyl-3-methyl-azetidin-3-amine] |
| 0.1 to 50 | 50 to 200 | 0.1 to 50 | 1 to 50 | 1 to 50 | 1 to 50 | 1 to 50 | 1 to 50 | C[C@@H](Oc1ccc2[nH]nc(-c3cnc(N4CC(C)(N5CC(C)(C)C5)C4)c(F)c3)c2c1)c1c(Cl)cncc1Cl [Example 111, (R)-5-(1-(3,5-dichloropyridin-4-yl)ethoxy)-3-(5-fluoro-6-(3,3,3′-trimethyl-[1,3′-biazetidin]-1′-yl)pyridin-3-yl)-1H-indazole] |
| 0.1 to 50 | 0.1 to 50 | 0.1 to 50 | 1 to 50 | 1 to 50 | 1 to 50 | 1 to 50 | 1 to 50 | C[C@@H](Oc1ccc2[nH]nc(-c3cnc(N4CC(C)(CN5CCCC5)C4)c(F)c3)c2c1)c1c(Cl)cncc1Cl [Example 110, (R)-5-(1-(3,5-dichloropyridin-4-yl)ethoxy)-3-(5-fluoro-6-(3-methyl-3-(pyrrolidin-1-ylmethyl)azetidin-1-yl)pyridin-3-yl)-1H-indazole] |
| 0.1 to 50 | 200 to 1000 | 0.1 to 50 | 1 to 50 | 1 to 50 | 1 to 50 | 1 to 50 | 1 to 50 | C[C@@H](Oc1cc2c(-c3ccc(N4CC(C)(CP(C)(C)=O)C4)nc3)n[nH]c2cc1F)c1c(Cl)cncc1Cl [Example 67, (R)-((1-(5-(5-(1-(3,5-dichloropyridin-4-yl)ethoxy)-6-fluoro-1H-indazol-3-yl)pyridin-2-yl)-3-methylazetidin-3-yl)methyl)dimethylphos-phine oxide] |
| 0.1 to 50 | 0.1 to 50 | 0.1 to 50 | 1 to 50 | 1 to 50 | 1 to 50 | 1 to 50 | 1 to 50 | C[C@@H](Oc1ccc2[nH]nc(-c3ccc(N4CC(C)(NCCO)C4)nc3)c2c1)c1c(Cl)cncc1Cl [Example 89, (R)-2-((1-(5-(5-(1-(3,5-dichloropyridin-4-yl)ethoxy)-1H-indazol-3-yl)pyridin-2-yl)-3-methylazetidin-3-yl)amino)ethan-1-ol] |
| 0.1 to 50 | 0.1 to 50 | 0.1 to 50 | 1 to 50 | 1 to 50 | 1 to 50 | 1 to 50 | 1 to 50 | C[C@@H](Oc1ccc2[nH]nc(-c3cnc(N4CC(C)(N5CCC5)C4)c(F)c3)c2c1)c1c(Cl)cncc1Cl [Example 103, (R)-5-(1-(3,5-dichloropyridin-4-yl)ethoxy)-3-(5-fluoro-6-(3′-methyl-[1,3′-biazetidin]-1′-yl)pyridin-3-yl)-1H-indazole] |
| 0.1 to 50 | 0.1 to 50 | 0.1 to 50 | 1 to 50 | 1 to 50 | 1 to 50 | 1 to 50 | 1 to 50 | C[C@@H](O)CNC1(C)CN(c2ccc(-c3n[nH]c4ccc(O[C@H](C)c5c(Cl)cncc5Cl)cc34)cn2)C1 [Example 91, (R)-1-((1-(5-(5-((R)-1-(3,5-dichloropyridin-4-yl)ethoxy)-1H-indazol-3-yl)pyridin-2-yl)-3-methylazetidin-3-yl)amino)propan-2-ol] |
| > 1000 | > 1000 | > 1000 | > 1000 | 50 to 300 | > 1000 | 300 to 1000 | 50 to 300 | C[C@@H](Oc1ccc2[nH]nc(-c3cnc(N4CC(C)(NCC(C)(C)O)C4)c(F)c3)c2c1F)c1c(Cl)cncc1Cl [Example 170, (R)-1-((1-(5-(5-(1-(3,5-dichloro-pyridin-4-yl)ethoxy)-4-fluoro-1H-indazol-3-yl)-3-fluoropyridin-2-yl)-3-methylazetidin-3-yl)amino)-2-methylpropan-2-ol] |
| 50 to 200 | 50 to 200 | 0.1 to 50 | 1 to 50 | 1 to 50 | 1 to 50 | 1 to 50 | 1 to 50 | C[C@@H](Oc1ccc2[nH]nc(-c3cnc(N4CC(C)(O)C4)c(F)c3)c2c1)c1c(Cl)cncc1Cl [Example 154, 1-[5-[5-[(1R)-1-(3,5-dichloro-4-pyridyl)ethoxy]-1H-indazol-3-yl]-3-fluoro-2-pyridyl]-3-methyl-azetidin-3-ol] |
| 50 to 200 | 200 to 1000 | 0.1 to 50 | 1 to 50 | 1 to 50 | 1 to 50 | 1 to 50 | 1 to 50 | Cc1ncc(Cl)c([C@@H](C)Oc2ccc3[nH]nc(-c4ccc(N5CC(C)(NC6CCC6)C5)nc4)c3c2)c1Cl [Example 71, N-cyclobutyl-1-[5-[5-[(1R)-1-(3,5-dichloro-2-methyl-4-pyridyl)ethoxy]-1H-indazol-3-yl]-2-pyridyl]-3-methyl-azetidin-3-amine] |
| 0.1 to 50 | 0.1 to 50 | 0.1 to 50 | 1 to 50 | 1 to 50 | 1 to 50 | 1 to 50 | 1 to 50 | C[C@@H](Oc1ccc2[nH]nc(-c3cnc(N4CC(C)(N5CC(C)(O)C5)C4)c(F)c3)c2c1)c1c(Cl)cncc1Cl [Example 96, (R)-1′-(5-(5-(1-(3,5-dichloropyridin-4-yl)ethoxy)-1H-indazol-3-yl)-3-fluoropyridin-2-yl)-3,3′-dimethyl-[1,3′-biazetidin]-3-ol] |
| 0.1 to 50 | 0.1 to 50 | 0.1 to 50 | 1 to 50 | 1 to 50 | 1 to 50 | 1 to 50 | 1 to 50 | CC(C)NCC1(C)CN(c2ncc(-c3n[nH]c4ccc(O[C@H](C)c5c(Cl)cncc5Cl)cc34)cc2F)C1 [Example 108, (R)-N-((1-(5-(5-(1-(3,5-dichloropyridin-4-yl)ethoxy)-1H-indazol-3-yl)-3-fluoropyridin-2-yl)-3-methylazetidin-3-yl)methyl)propan-2-amine] |
| 0.1 to 50 | 0.1 to 50 | 0.1 to 50 | 1 to 50 | 1 to 50 | 1 to 50 | 1 to 50 | 1 to 50 | COc1cc2[nH]nc(-c3ccc(N4CC(C)(N[C@@H]5CCOC5)C4)nc3)c2cc1O[C@H](C)c1c(Cl)cncc1Cl [Example 73, 1-(5-(5-((R)-1-(3,5-dichloropyridin-4-yl)ethoxy)-6-methoxy-1H-indazol-3-yl)pyridin-2-yl)-3-methyl-N-((R)-tetrahydrofuran-3-yl)azetidin-3-amine] |
| 0.1 to 50 | 0.1 to 50 | 0.1 to 50 | 1 to 50 | 1 to 50 | 1 to 50 | 1 to 50 | 1 to 50 | COc1cc2[nH]nc(-c3cnc(N4CC(C)(NCC(C)(C)O)C4)c(F)c3)c2cc1O[C@H](C)c1c(Cl)cncc1Cl [Example 159] |
| 0.1 to 50 | 0.1 to 50 | 0.1 to 50 | 1 to 50 | 1 to 50 | 1 to 50 | 1 to 50 | 1 to 50 | C[C@@H](Oc1ccc2[nH]nc(-c3cnc(N4CC(C)(N5C[C@@H]6C[C@H]5CO6)C4)c(F)c3)c2c1)c1c(Cl)cncc1Cl [Example 218, (1S,4S)-5-(1-(5-(5-((R)-1-(3,5-dichloropyridin-4-yl)ethoxy)-1H-indazol-3-yl)-3-fluoropyridin-2-yl)-3-methylazetidin-3-yl)-2-oxa-5-aza-bicyclo[2.2.1]hep-tane] |

| Compound | IC50 [1] [nM] | IC50 [2] [nM] | IC50 [3] [nM] | Kd (FGFR2) [nM] | Kd (FGFR3) [nM] | Kd (FGFR1) [nM] | Kd (FGFR4) [nM] | Kd (FGFR3 (V555M)) [nM] |
| --- | --- | --- | --- | --- | --- | --- | --- | --- |
| C[C@@H](Oc1ccc2[nH]nc(-c3ccc(N4CC(C)(N5CC6CC(C5)O6)C4)nc3)c2c1)c1c(Cl)cncc1Cl [Example 222, 3-(1-(5-(5-((R)-1-(3,5-dichloropyridin-4-yl)ethoxy)-1H-indazol-3-yl)pyridin-2-yl)-3-methylazetidin-3-yl)-6-oxa-3-aza-bicyclo[3.1.1]hep-tane] | 0.1 to 50 | 0.1 to 50 | 0.1 to 50 | 1 to 50 | 1 to 50 | 1 to 50 | 1 to 50 | 1 to 50 |
